{"source": "patent US20240050580A1", "about": "“COMPOSITIONS TARGETING TUMOR ASSOCIATED MACROPHAGES AND METHODS USING SAME” (Rutgers, The State University of New Jersey, priority 2020, published 2024)", "molecules": {"B1": {"name": "CSSTRESAC-phage (peptide)", "peptide": "CSSTRESAC", "modifications": "cysteine pairing not given here; also: displayed on bacteriophage particle", "notes": "The control was insertless phage; not shown: The phage coat protein and the rest of the phage particle that carry the CX7C insert"}}, "key": {"EF43.fgf4 cells": {"test_system": "EF43.fgf4 cells", "assay": "Phage/peptide binding to cultured EF43.fgf4 cells (BRASIL cell binding assay)", "type": "cell-based, mouse", "conditions": "standard cell binding assay, phage-displayed peptide", "protocol": "(§1) The Biopanning and Rapid Analysis of Selective Interactive Ligands (BRASIL) methodology was used to test binding of phage to cultured cells. For phage binding to the candidate receptors PDIA3 and DBP, individual microtiter wells of 96-well plates were coated overnight (ON) with 1 μg/ml of recombinant proteins, followed by blocking with BSA and incubation with 10^9 TU of insertless phage or […]-phage for 1 hour at room temperature (RT). GST and BSA were used as control proteins. Bound phage were recovered by log-phase infection of host bacteria (200 μl E. coli K91Kan)."}, "EF43.fgf4 tumors": {"test_system": "EF43.fgf4 tumors", "assay": "Systemic treatment of EF43.fgf4 tumor-bearing mice with soluble peptide", "type": "in vivo, mouse"}, "[1]": {"test_system": "EF43.fgf4-derived mammary fat pad tumors", "assay": "In vivo phage display library selection in EF43.fgf4 tumor-bearing mice", "design": "species or system mouse", "conditions": "peptide sequences from third round of in vivo selection", "protocol": "Combinatorial phage display selections in vivo in tumor-bearing mice were performed as described in the literature. In brief, animals received 10^9 TU iv of an unselected phage display random peptide library (displaying the insert CX7C). Tumors and control organs were collected after 24 hours of systemic circulation. For homing of individual phage clones in vivo, tumor-bearing mice were deeply anesthetized with 1-2% isoflurane and received 10^9 TU of targeted phage or insertless control phage, both administered iv side-by-side. Phage particles were recovered from tissue samples by bacterial infection and processed as described in the literature.\nA phage display-based approach was used to identify homing peptides that target TAM in TNBC. […] A random phage peptide library was first administered intravenously (iv) in immunocompetent female BALB/c mice with established EF43.fgf4-derived mammary fat pad tumors. Phage particles were recovered from tumors after 24 hours, re-amplified, and subjected to two additional rounds of in vivo selection. […] The four selected peptides were next individually evaluated based on absence of binding to EF43.fgf4 cells in vitro (FIG. 2B). […] In a non-limiting aspect, the peptides […], (SEQ ID NO:3) […] (SEQ ID NO:4), and […] (SEQ ID NO:2) were not studied further."}, "[2]": {"test_system": "CD11b+F4/80+ TAM from EF43.fgf4 mammary tumors", "assay": "Cytokine gene expression by quantitative real-time PCR in cultured TAM", "type": "cell-based, mouse", "protocol": "Three sets of total RNA (RNeasy Mini Kit, Qiagen) were independently isolated from cultured macrophages, or fresh macrophages isolated directly from tumors. DNA synthesis was performed with the […] Reverse Transcription System (Promega) by using oligodT for reverse transcription. Gene expression was analyzed with the use of Tagman probes (Applied Biosystems) in a 7500 Fast Real-Time PCR System instrument (Applied Biosystems) and three sets of endogenous control genes: 18S and GAPDH and GUSB1. TAM were obtained directly from EF43.fgf4 tumors. Tissue digestion was performed in collagenase A in serum-free DMEM (1 mg/mL) for 20 minutes at 37° C., followed by filtering through 70 μm nylon cell strainers and centrifugation. Macrophages were enriched by magnetic bead separation of CD11b-positive cells (Miltenyi Biotec) and either used for RNA extraction or cultured in 6-well plates containing DMEM (Gibco) supplemented with 20% FBS (Sigma) and 50 ng/ml of M-CSF (R&D Systems). A homogeneous population of adherent macrophages (namely, >99% CD11b+F480+) was obtained after 7 days in culture."}, "DBP": {"biological_target": "T1, DBP (Homo sapiens, UniProt P02774)", "T1 construct": "GST; purchased Abcam", "T1 sequence (P02774 17-474)": "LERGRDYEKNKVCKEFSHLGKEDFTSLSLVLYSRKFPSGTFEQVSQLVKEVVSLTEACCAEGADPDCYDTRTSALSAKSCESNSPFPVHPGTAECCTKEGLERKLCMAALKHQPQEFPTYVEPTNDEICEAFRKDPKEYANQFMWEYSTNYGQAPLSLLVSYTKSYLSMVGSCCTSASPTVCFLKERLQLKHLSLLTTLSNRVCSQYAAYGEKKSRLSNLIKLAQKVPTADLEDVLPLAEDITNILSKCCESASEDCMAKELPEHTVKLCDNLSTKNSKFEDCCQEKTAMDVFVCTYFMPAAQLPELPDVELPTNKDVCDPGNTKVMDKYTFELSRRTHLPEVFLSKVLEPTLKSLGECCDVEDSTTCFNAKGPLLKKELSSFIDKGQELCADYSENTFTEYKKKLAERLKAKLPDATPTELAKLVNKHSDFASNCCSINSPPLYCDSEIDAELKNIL", "assay": "Competitive binding of […]-phage and vitamin D forms to DBP", "conditions": "wells pre-incubated with 3 nM or 30 nM competitor; P<0.05", "protocol": "as §1"}, "[3]": {"biological_target": "T2, PDIA3 on the surface of tumor associated macrophages (TAM) from EF43.fgf4 mammary tumors (mouse, UniProt P27773 25-505)", "T2 sequence (looked up)": "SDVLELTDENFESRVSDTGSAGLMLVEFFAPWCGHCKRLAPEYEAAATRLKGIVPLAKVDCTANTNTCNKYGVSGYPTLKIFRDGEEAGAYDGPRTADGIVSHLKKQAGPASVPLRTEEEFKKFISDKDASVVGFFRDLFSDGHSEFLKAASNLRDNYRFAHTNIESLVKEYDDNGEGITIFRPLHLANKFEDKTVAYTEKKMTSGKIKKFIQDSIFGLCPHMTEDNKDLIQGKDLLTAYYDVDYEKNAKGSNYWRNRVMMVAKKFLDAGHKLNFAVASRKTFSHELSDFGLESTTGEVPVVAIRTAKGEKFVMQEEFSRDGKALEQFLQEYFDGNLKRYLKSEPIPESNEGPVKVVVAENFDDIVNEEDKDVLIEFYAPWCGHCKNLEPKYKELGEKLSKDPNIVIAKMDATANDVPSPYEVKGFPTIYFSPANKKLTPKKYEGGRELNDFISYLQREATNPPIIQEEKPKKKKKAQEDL", "assay": "cell-based or functional assay"}, "[4]": {"biological_target": "T3, recombinant human vitamin D-binding protein (DBP) (human, UniProt P02774 17-474, limits assumed)", "T3 construct": "Bought from Abcam and coated at 1 ug/ml on microtiter wells; also called recombinant human DBP; DBP-GST", "T3 sequence (looked up)": "T1 sequence (P02774 17-474)", "assay": "phage binding assay on coated recombinant protein, bound phage counted as TU", "protocol": "The Biopanning and Rapid Analysis of Selective Interactive Ligands (BRASIL) methodology was used to test binding of phage to cultured cells. […] GST and BSA were used as control proteins. Bound phage were recovered by log-phase infection of host bacteria (200 μl E. coli K91Kan)."}}, "note": "Bridge positions count the residues as written; N and C are the ends. Ends that are not written are not given here."}
{"molecule": "CRGFVVGRC (TAM Targeting Peptide) [TAM targeting peptide selected by in vivo phage display]", "values": [{"measurement": "binding to EF43.fgf4 cells in vitro", "setting": "EF43.fgf4 cells", "value": "bound to EF43.fgf4 cells"}]}
{"molecule": "CSSTRESAC (disulfide 1-9) [TAM targeting peptide from CX7C phage library; modeled with disulfide bridge between Cys1 and Cys9]", "values": [{"measurement": "binding to EF43.fgf4 cells in vitro", "setting": "EF43.fgf4 cells", "value": "did not"}, {"measurement": "tumor growth", "setting": "EF43.fgf4 tumors; iv, vs unrelated control peptide or vehicle, from one week post initiation, P<0.001", "value": "significant delay in tumor growth"}, {"measurement": "macrophage population in tumor sections (immunohistochemistry, CD163)", "setting": "EF43.fgf4 tumors; vs control peptide", "value": "reduction of the macrophage population"}, {"measurement": "number of CD11b+IL10highIL12low PDIA3-expressing TAM in tumors (FACS)", "setting": "EF43.fgf4 tumors; vs negative control groups", "value": "reduction in the number"}, {"measurement": "enrichment relative to each of the other three selected peptides", "setting": "[1]", "value": 16, "unit": "fold"}, {"measurement": "gene expression of IL-4 and IL-13", "setting": "[2]", "value": "undetectable"}, {"measurement": "gene expression of IL-18, IL-12, and INFβ", "setting": "[2]; relative to control cells", "value": "modest increases or were detected only at background levels"}, {"measurement": "gene expression of anti-inflammatory cytokines TGF-β1, TGF-β2, IL-10, and arginase-1", "setting": "[2]; relative to control cells", "value": "much lower increases"}]}
{"molecule": "CQRALMIAC (TAM Targeting Peptide) [TAM targeting peptide selected by in vivo phage display]", "values": [{"measurement": "binding to EF43.fgf4 cells in vitro", "setting": "EF43.fgf4 cells", "value": "bound to EF43.fgf4 cells"}]}
{"molecule": "CRYSAARSC (TAM Targeting Peptide) [TAM targeting peptide selected by in vivo phage display]", "values": [{"measurement": "binding to EF43.fgf4 cells in vitro", "setting": "EF43.fgf4 cells", "value": "bound to EF43.fgf4 cells"}]}
{"molecule": "C=C1/C(=C\\C=C2/CCC[C@]3(C)[C@@H]([C@H](C)CCCC(C)(C)O)CC[C@@H]23)C[C@@H](O)C[C@@H]1O", "note": "[1,25-(OH)2D3, reference compound]", "values": [{"measurement": "effect of co-treatment on the CSSTRESAC-induced cytokine response", "setting": "[2]; TAM co-treated with CSSTRESAC peptide and 1,25-(OH)2D3", "value": "abrogated"}]}
{"molecule": "C=C1CC[C@H](O)C/C1=C/C=C1\\CCC[C@]2(C)[C@@H]([C@H](C)CCCC(C)C)CC[C@@H]12", "note": "[vitamin D3, cholecalciferol]", "values": [{"measurement": "effect on binding of CSSTRESAC-phage to immobilized DBP", "setting": "DBP", "value": "not"}]}
{"molecule": "CSSTRESAC (not fully specified; cysteine pairing not given here)", "note": "[synthetic CSSTRESAC peptide (SEQ ID NO:1)]", "values": [{"measurement": "gene expression of iNOS2 in cultured CD11b+F4/80+ TAM (real-time quantitative PCR)", "setting": "[3]", "value": "~20", "unit": "fold"}, {"measurement": "gene expression of the cytokine IL-23 in cultured CD11b+F4/80+ TAM (real-time quantitative PCR)", "setting": "[3]", "value": "~10", "unit": "fold"}, {"measurement": "gene expression of the pro-inflammatory cytokines IL-1β, TNF-α, and IL-6 in cultured CD11b+F4/80+ TAM (real-time quantitative PCR)", "setting": "[3]", "value": "~40", "unit": "fold"}]}
{"molecule": "B1", "values": [{"measurement": "binding result", "setting": "[4]", "value": "binds"}]}
